We go through 18 compounds from patent publication US20130217664A1, “NOVEL COMPOUNDS USEFUL FOR THE TREATMENT OF DEGENERATIVE AND INFLAMMATORY DISEASES” (priority 2012, published 2013).

The structures appear in SMILES notation.

In one experiment the target is T1, human JAK1 (Homo sapiens, UniProt P23458).
T1 construct: catalytic domain, amino acids 866-1154; catalog number PV4774; purchased Invitrogen PV4774
The experiment in a line: JAK1 inhibition assay (polyGT substrate / Ulight-JAK1 peptide). It is filed as biochemical. The conditions noted are these: recombinant human JAK1 catalytic domain; polyGT or Ulight-JAK1 peptide assay. The method in brief:
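Two formats. PolyGT radiometric: 45 min at 30 °C, stopped with phosphoric acid, counted as cpm. Ulight-JAK1 peptide: 60 min at room temperature, stopped with Eu-anti-phosphotyrosine/EDTA, read as RFU. Percent inhibition normalised to vehicle and 10 μM staurosporine.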

The target in a further experiment is T2, human JAK3 (Homo sapiens, UniProt P52333).
T2 construct: catalytic domain (amino acids 781-1124; catalog number PV3855); purchased Invitrogen PV3855
T2 sequence (P52333 781-1124): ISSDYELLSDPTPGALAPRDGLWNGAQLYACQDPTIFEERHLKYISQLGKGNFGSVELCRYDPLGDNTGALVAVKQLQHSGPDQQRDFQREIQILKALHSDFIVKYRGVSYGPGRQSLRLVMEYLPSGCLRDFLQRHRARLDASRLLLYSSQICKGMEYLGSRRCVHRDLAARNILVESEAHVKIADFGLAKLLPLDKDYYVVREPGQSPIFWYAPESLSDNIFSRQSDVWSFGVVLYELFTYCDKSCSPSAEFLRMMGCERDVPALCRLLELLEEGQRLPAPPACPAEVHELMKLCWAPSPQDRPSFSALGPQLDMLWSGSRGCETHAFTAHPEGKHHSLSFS
The experiment in a line: JAK3 inhibition assay. The note with it: recombinant human JAK3 catalytic domain; polyGT substrate. It counts as biochemical. An outline of the steps: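 Radiometric kinase assay: 0.5 ng JAK3 with 2.5 μg polyGT in Tris pH 7.5/MgCl2 buffer, 1 μM ATP plus 0.25 μCi 33P-γ-ATP, 1% DMSO, 45 min at 30 °C, stopped with phosphoric acid.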

In experiment [1] the test system is pSTAT1(2)-luciferase reporter in HeLa cells triggered with human OSM. Kind of experiment: JAK-STAT signalling assay. The note with it: Homo sapiens, HeLa, HeLa cells, pSTAT1(2)-luciferase reporter, human OSM 33 ng/mL; read-out: JAK-STAT IC50. It counts as cell-based. How it is done: JAK-STAT Signalling Assay
HeLa cells were maintained in Dulbecco's Modified Eagle's Medium (DMEM) containing 10% heat inactivated fetal calf serum, 100 U/mL penicillin and 100 μg/mL streptomycin. HeLa cells were used at 70% confluence for transfection. 20,000 cells in 87 μL cell culture medium were transiently transfected with 40 ng pSTAT1(2)-luciferase reporter (Panomics), 8 ng of LacZ reporter as internal control reporter and 52 ng of pBSK using 0.32 μL Jet-PEI (Polyplus) as transfection reagent per well in 96-well plate format. After overnight incubation at 37° C., 5% CO2, transfection medium was removed. 81 μL of DMEM+1.5% heat inactivated fetal calf serum was added. 9 μL compound at 10× concentration was added for 60 min and then 10 μL of human OSM (Peprotech) at 33 ng/mL final concentration.
After overnight incubation at 37° C., 5% CO2 cells were lysed by adding 100 μL lysis buffer/well (PBS, 0.9 mM CaCl2, 0.5 mM MgCl2, 10% Trehalose, 0.05% Tergitol NP9, 0.3% BSA).
40 μL of cell lysate was used to read β-galactosidase activity by adding 180 μL β-Gal solution (30 μL ONPG 4 mg/mL+150 μL β-Galactosidase buffer (0.06 M Na2HPO4, 0.04 M NaH2PO4, 1 mM MgCl2)) for 20 min.
Luciferase activity was measured using 40 μL cell lysate plus 40 μL of Steadylite as described by the manufacturer (Perkin Elmer), on the Envision (Perkin Elmer).
The positive and negative controls were used to calculate z′ and ‘percent inhibition’ (PIN) values.
Percentage inhibition=((fluorescence determined in the presence of vehicle−fluorescence determined for sample with test compound present)divided by(fluorescence determined in the presence of vehicle−fluorescence determined for sample without trigger))*100.
PIN values were plotted for compounds tested in dose-response and EC50 values were derived.
Background: A reporter such as luciferase makes a cellular process visible.

The target of the next experiment is T3, human TYK2 (Homo sapiens, UniProt P29597).
T3 construct: catalytic domain (amino acids 871-1187; catalog number 08-147); purchased Carna Biosciences 08-147
T3 sequence (P29597 871-1187): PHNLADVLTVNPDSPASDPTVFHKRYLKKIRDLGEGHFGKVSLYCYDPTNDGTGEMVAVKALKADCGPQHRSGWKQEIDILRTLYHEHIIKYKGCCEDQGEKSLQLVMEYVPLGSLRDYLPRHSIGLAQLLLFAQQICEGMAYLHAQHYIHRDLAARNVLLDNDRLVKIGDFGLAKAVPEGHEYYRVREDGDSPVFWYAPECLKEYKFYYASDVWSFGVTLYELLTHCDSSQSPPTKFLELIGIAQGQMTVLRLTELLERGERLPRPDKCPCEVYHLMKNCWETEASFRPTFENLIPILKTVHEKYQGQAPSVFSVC
Kind of experiment: TYK2 inhibition assay. It is filed as biochemical. The note with it: recombinant human TYK2 catalytic domain, polyGT substrate. The method in brief: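 Radiometric kinase reaction run 90 min at 30 °C, stopped with phosphoric acid, washed and scintillation-counted.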

T1 sequence (P23458 866-1154): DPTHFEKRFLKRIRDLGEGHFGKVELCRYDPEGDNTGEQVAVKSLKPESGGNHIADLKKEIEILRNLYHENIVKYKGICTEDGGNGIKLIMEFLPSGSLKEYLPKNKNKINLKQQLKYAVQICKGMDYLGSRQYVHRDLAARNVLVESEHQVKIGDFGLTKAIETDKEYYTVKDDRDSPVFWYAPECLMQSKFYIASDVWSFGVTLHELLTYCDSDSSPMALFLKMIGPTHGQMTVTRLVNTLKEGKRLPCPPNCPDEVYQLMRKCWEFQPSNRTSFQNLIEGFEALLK

As a reminder, the IC50 is the concentration needed to halve the response being measured. For the compound `CCc1cc(-c2noc(COC)n2)ccc1N(C)c1cc2c(cn1)ncn2C` [Compound 157, N-(2-ethyl-4-(5-(methoxymethyl)-1,2,4-oxadiazol-3-yl)phenyl)-N,1-dimethyl-1H-imidazo[4,5-c]pyridin-6-amine], the IC50 on human JAK1 was 0.01 to 100 nM; on human JAK3, > 1000 nM; in experiment [1] it was > 1000 nM; at human TYK2 it was 0.01 to 100 nM.

Take `CCC(=O)N1CC=C(c2ccc(N(C)c3cc4c(cn3)ncn4C)c(CC)c2)CC1` [Compound 158, 1-(4-(3-ethyl-4-(methyl(1-methyl-1H-imidazo[4,5-c]pyridin-6-yl)amino)phenyl)-5,6-dihydropyridin-1(2H)-yl)propan-1-one]: the IC50 was 0.01 to 100 nM on human JAK1, 101 to 500 nM at human JAK3, 1 to 500 nM in experiment [1] and 0.01 to 100 nM on human TYK2.

For the compound `CCc1cc(C(O)C(F)(F)F)ccc1N(C)c1cc2c(cn1)ncn2C` (stereo not drawn) [Compound 159, 1-(3-Ethyl-4-(methyl(1-methyl-1H-imidazo[4,5-c]pyridin-6-yl)amino)phenyl)-2,2,2-trifluoroethanol], the IC50 at human JAK1 is 0.01 to 100 nM; on human JAK3, 501 to 1000 nM; in experiment [1], > 1000 nM; at human TYK2, 101 to 500 nM.

As for `CCc1cc(C(=O)NCCO)ccc1N(C)c1cc2c(cn1)ncn2C` [Compound 160, 3-ethyl-N-(2-hydroxyethyl)-4-(methyl(1-methyl-1H-imidazo[4,5-c]pyridin-6-yl)amino)benzamide], the IC50 at human JAK1 was 0.01 to 100 nM; on human JAK3, > 1000 nM; in experiment [1] it was > 1000 nM; on human TYK2, > 1000 nM.

On to `CCc1cc(-c2cccc(C#N)c2)ccc1N(C)c1cc2c(cn1)ncn2C` [Compound 163, 3′-ethyl-4′-(methyl(1-methyl-1H-imidazo[4,5-c]pyridin-6-yl)amino)biphenyl-3-carbonitrile], for which the concentration for half-maximal inhibition (IC50) at human JAK1 fell in the range of 0.01 to 100 nM; on human JAK3 it was 501 to 1000 nM; in experiment [1] it was 501 to 1000 nM; on human TYK2, 501 to 1000 nM.

As for `CCc1cc(-c2ccccc2)ccc1N(C)c1cc2c(cn1)ncn2C` [Compound 164, N-(3-ethylbiphenyl-4-yl)-N,1-dimethyl-1H-imidazo[4,5-c]pyridin-6-amine], the IC50 at human JAK1 lay within 0.01 to 100 nM; on human JAK3 it was 101 to 500 nM; in experiment [1], 501 to 1000 nM; on human TYK2, 0.01 to 100 nM.

With `CCc1cc(C2=CCN(C(C)=O)CC2)ccc1N(C)c1cc2c(cn1)ncn2C` [Compound 168, 1-(4-(3-ethyl-4-(methyl(1-methyl-1H-imidazo[4,5-c]pyridin-6-yl)amino)phenyl)-5,6-dihydropyridin-1(2H)-yl)ethanone], the IC50 on human JAK1 is 0.01 to 100 nM; at human JAK3, 101 to 500 nM; in experiment [1], 1 to 500 nM; on human TYK2, 0.01 to 100 nM.

Turning to `CCNC(=O)N1CC=C(c2ccc(N(C)c3cc4c(cn3)ncn4C)c(CC)c2)CC1` [Compound 172, N-ethyl-4-(3-ethyl-4-(methyl(1-methyl-1H-imidazo[4,5-c]pyridin-6-yl)amino)phenyl)-5,6-dihydropyridine-1(2H)-carboxamide], the IC50 lay in the range of 0.01 to 100 nM at human JAK1, 101 to 500 nM at human JAK3, 1 to 500 nM in experiment [1] and 0.01 to 100 nM at human TYK2.

As to `CCc1cc(-c2nnc(C)o2)ccc1N(C)c1cc2c(cn1)ncn2C` [Compound 177, N-(2-Ethyl-4-(5-methyl-1,3,4-oxadiazol-2-yl)phenyl)-N,1-dimethyl-1H-imidazo[4,5-d]pyridin-6-amine], the IC50 on human JAK1 is 0.01 to 100 nM; at human JAK3 it was > 1000 nM; in experiment [1], 501 to 1000 nM; at human TYK2, 0.01 to 100 nM.

Turning to `CCc1cc(-c2nc(C)no2)ccc1N(C)c1cc2c(cn1)ncn2C` [Compound 178, N-(2-Ethyl-4-(3-methyl-1,2,4-oxadiazol-5-yl)phenyl)-N,1-dimethyl-1H-imidazo[4,5-d]pyridin-6-amine], the IC50 at human JAK1 is 0.01 to 100 nM; at human JAK3 it was > 1000 nM; in experiment [1] it was 501 to 1000 nM; on human TYK2 it was 101 to 500 nM.

For the compound `CCc1cc(-c2cncc(C#N)c2)ccc1N(C)c1cc2c(cn1)ncn2C` [Compound 189, 5-(3-ethyl-4-(methyl(1-methyl-1H-imidazo[4,5-c]pyridin-6-yl)amino)phenyl)nicotino-nitrile], the IC50 on human JAK1 is 0.01 to 100 nM; on human JAK3, > 1000 nM; in experiment [1], > 1000 nM; at human TYK2, 101 to 500 nM.

With `CCc1cc(CNC(=O)OC)ccc1N(C)c1cc2c(cn1)ncn2C` [Compound 191, Methyl 3-ethyl-4-(methyl(1-methyl-1H-imidazo[4,5-c]pyridin-6-yl)amino)benzyl carbamate], the IC50 at human JAK1 was in the range of 0.01 to 100 nM; on human JAK3, 101 to 500 nM; in experiment [1], 501 to 1000 nM; on human TYK2, 101 to 500 nM.

In the case of `CCc1cc(C2=CCN(C(=O)CCC#N)CC2)ccc1N(C)c1cc2c(cn1)ncn2C` [Compound 196, 4-(4-(3-ethyl-4-(methyl(1-methyl-1H-imidazo[4,5-c]pyridin-6-yl)amino)phenyl)-5,6-dihydropyridin-1(2H)-yl)-4-oxobutanenitrile], the IC50 lay in the range of 0.01 to 100 nM at human JAK1, 101 to 500 nM at human JAK3, 501 to 1000 nM in experiment [1] and 0.01 to 100 nM at human TYK2.

With `CCc1cc(C2=CCN(C(=O)C3(C#N)CC3)CC2)ccc1N(C)c1cc2c(cn1)ncn2C` [Compound 198, 1-(4-(3-ethyl-4-(methyl(1-methyl-1H-imidazo[4,5-c]pyridin-6-yl)amino)phenyl)-1,2,3,6-tetrahydropyridine-1-carbonyl)cyclopropane-carbonitrile], the IC50 was 0.01 to 100 nM on human JAK1, 101 to 500 nM on human JAK3, 501 to 1000 nM in experiment [1] and 0.01 to 100 nM at human TYK2.

Consider `CCc1cc(C2=CCN(C(=O)CC(C)(C)O)CC2)ccc1N(C)c1cc2c(cn1)ncn2C` [Compound 200, 1-(4-(3-ethyl-4-(methyl(1-methyl-1H-imidazo[4,5-c]pyridin-6-yl)amino)phenyl)-5,6-dihydropyridin-1(2H)-yl)-3-hydroxy-3-methylbutan-1-one], for which the IC50 was 0.01 to 100 nM on human JAK1, 101 to 500 nM on human JAK3, 501 to 1000 nM in experiment [1] and 0.01 to 100 nM at human TYK2.

As for `CCc1cc(C2=CCN(C(=O)NC3(C)CC3)CC2)ccc1N(C)c1cc2c(cn1)ncn2C` [Compound 202, 4-(3-ethyl-4-(methyl(1-methyl-1H-imidazo[4,5-c]pyridin-6-yl)amino)phenyl)-N-(1-methylcyclopropyl)-5,6-dihydropyridine-1(2H)-carboxamide], the IC50 on human JAK1 fell in the range of 0.01 to 100 nM; on human JAK3, 101 to 500 nM; in experiment [1], 1 to 500 nM; on human TYK2 it was 0.01 to 100 nM.

As for `CCc1cc(C2=CCN(C(=O)NC#N)CC2)ccc1N(C)c1cc2c(cn1)ncn2C` [Compound 203, N-cyano-4-(3-ethyl-4-(methyl(1-methyl-1H-imidazo[4,5-c]pyridin-6-yl)amino)phenyl)-5,6-dihydropyridine-1(2H)-carboxamide], the IC50 at human JAK1 was 0.01 to 100 nM; on human JAK3 it was 0.01 to 100 nM; in experiment [1], > 1000 nM; on human TYK2, 0.01 to 100 nM.

In the case of `CCc1cc(C2=CCN(C(=O)NC)CC2)ccc1N(C)c1cc2c(cn1)ncn2C` [Compound 204, 4-(3-ethyl-4-(methyl(1-methyl-1H-imidazo[4,5-c]pyridin-6-yl)amino)phenyl)-N-methyl-5,6-dihydropyridine-1(2H)-carboxamide], the IC50 at human JAK1 fell in the range of 0.01 to 100 nM; on human JAK3 it was 0.01 to 100 nM; in experiment [1] it was 1 to 500 nM; at human TYK2, 0.01 to 100 nM.
